Assay [1] deals with MMP-9 and other gelatinases. Description: Gelatin zymography of injured spinal cord extracts with metalloproteinase inhibitor control. In kind it is biochemical, mouse. Particulars: substrate gels incubated with 4 mM 1,10-phenanthroline. As for the experimental part: Samples of spinal cord, prepared from the epicenter, were quick-frozen at −80° C. Each sample was weighed and homogenized in (1:4 weight to volume) in lysis buffer containing 50 mM Tris-HCl (pH 8.0), 150 mM NaCl, 1% NP-40, 0.5% deoxycholate, 0.1% SDS. Soluble and insoluble extracts were separated by centrifugation and stored at −20° C. Equal amounts of the supernatant were analyzed by gel zymography as previously described (Herron et al., 1986) on 10% SDS-polyacrylamide gels, copolymerized with substrate (1 mg/ml gelatin). The proteins were renatured by incubation in 2.5% Triton-X100, and then incubated in substrate buffer (50 mM Tris-HCl, […]) for 24 to 36 hours at 37° C. to enable the MMP-9 and other gelatinases to cleave the gelatin. After rinsing in water, each gel was stained with Coomassie Blue for 4 hours and destained in 50% methanol. Negative staining is indicative of the location of active protease bands. After exposure to SDS during gel separation, proenzymes, present in tissue extracts, are activated without proteolytic cleavage. To inhibit MMP proteolytic activities, substrate gels were incubated in substrate buffer with 4 mM 1,10-phenanthroline (Sigma, St. Louis, Mo.), as described (Adler et al. 1990) Development 110:211-220). This control ensured that the measured activity corresponded to matrix metalloproteinase activity. […]

Assay [2] deals with blood-spinal cord barrier. In words: Blood-spinal cord barrier permeability to horseradish peroxidase (HRP) after contusive spinal cord injury. In kind it is in vivo, mouse. As to conditions: 24 hours post injury, GM 6001 100 mg/kg i.p. from 3 hours post injury, compared to wild type; for blood-spinal cord barrier permeability to HRP at the lesion epicenter: wild type mice, every 12 hours. The method, then: (§1) Adult, male mice (4-6 months of age), were anesthetized with 2.5% Avertin (0.02 ml/g bw, i.p.) and maintained at 37° C. throughout the experiment by using a warming blanket placed under the animal. […] Briefly, using aseptic techniques the spinous process and laminae of T8 were removed and a circular region of dura, approximately 2.4 mm in diameter, was exposed. After stabilization of the vertebral column, a 2 gm weight was dropped 5.0 cm onto the exposed dura. After injury, the overlying skin was closed with wound clips. Postoperative care included manual expression of each animal's bladder until recovery of reflex emptying.
(§2) Wild type mice were subjected to spinal cord injury as described in the previous section. […] Animals were treated every 12 hours (100 mg/kg in 4% methylcellulose, i.p.), for the first 3 days post injury.

Assay [3] has as its system blood-spinal cord barrier. Description: Blood-spinal cord barrier permeability to luciferase after spinal cord injury. As to conditions: 24 hours post injury, GM6001 begun at 3 hours after injury, N=6, vs vehicle N=4, P=0.04. In kind it is in vivo, mouse. As for the experimental part:
as §1, §2

The test system of assay [4] is neutrophils. In words: Neutrophil infiltration into the lesion (chloroacetate esterase stain) after spinal cord injury. Particulars: 24 hours post injury; GM6001 N=4 vs vehicle N=4; P=0.01. In kind it is in vivo, mouse. The method, then: Adult, male mice (4-6 months of age), were anesthetized with 2.5% Avertin (0.02 ml/g bw, i.p.) and maintained at 37° C. throughout the experiment by using a warming blanket placed under the animal. A contusive injury was performed based upon modifications of procedures originally described by Kuhn and Wrathall (1998) J. Neurotrauma 15:125-140. Briefly, using aseptic techniques the spinous process and laminae of T8 were removed and a circular region of dura, approximately 2.4 mm in diameter, was exposed. After stabilization of the vertebral column, a 2 gm weight was dropped 5.0 cm onto the exposed dura. After injury, the overlying skin was closed with wound clips. Postoperative care included manual expression of each animal's bladder until recovery of reflex emptying. […]
The protocol was as described by the manufacturer with several exceptions. […] The number of neutrophils within each of these sections was determined from digital images, captured with a CCD camera, as described in the preceding paragraph at 40×magnification. […] Only darkly stained structures, greater than 38 μm^2 (7 μm in diameter) were counted. For the rostral and caudal sections, the numbers of neutrophils within the entire cross sections were determined and summed. For the epicenter, neutrophils were quantified within specific regions of the cross section. […]

The subject of assay [5] is spinal cord injured mice. In words: Locomotor recovery after spinal cord injury, open field BBB Locomotor Rating Scale. In kind it is in vivo, mouse. Particulars: over 6 weeks post injury, GM6001 N=9 vs vehicle N=4, treatment 3 hours to 3 days post injury. As for the experimental part: as §1, §2
This scale assesses 10 distinct categories that range from limb movement to tail position and involve detailed observations of joint movement, stepping, and coordination. […] Spinal cord injured animals were tested on days 1 and 3 post injury and weekly thereafter for 6 weeks. […] Positioning of the limbs and locomotion was then observed by either directly or indirectly (via the mirror) viewing the animal.

The subject of assay [6] is spinal cord white matter. Description: Area of residual white matter at the lesion epicenter (Luxol fast blue). In kind it is in vivo, mouse. As to conditions: 42 days post injury, GM6001 vs vehicle, P=0.01. The method, then:
Adult, male mice (4-6 months of age), were anesthetized with 2.5% Avertin (0.02 ml/g bw, i.p.) and maintained at 37° C. throughout the experiment by using a warming blanket placed under the animal. A contusive injury was performed based upon modifications of procedures originally described by Kuhn and Wrathall (1998) J. Neurotrauma 15:125-140. Briefly, using aseptic techniques the spinous process and laminae of T8 were removed and a circular region of dura, approximately 2.4 mm in diameter, was exposed. After stabilization of the vertebral column, a 2 gm weight was dropped 5.0 cm onto the exposed dura. After injury, the overlying skin was closed with wound clips. Postoperative care included manual expression of each animal's bladder until recovery of reflex emptying.
Wild type mice were subjected to spinal cord injury as described in the previous section. All mice were treated with either GM 6001 (AMS Scientific, Inc., Concord, Calif. 100 mg/kg in 4% methylcellulose, i.p.), a general inhibitor of MMPs, or vehicle (4% methylcellulose, i.p.), at 3 hours post injury. […]
The area of residual white matter at the epicenter was determined in vehicle-and drug-treated wild type mice at 42 days post injury. […] These sections were captured with a Spotcam camera mounted on a Nikon Optiphot and analyzed using Photoshop 6.0™. […] These pixels were quantified and expressed per unit area.

SMILES strings stand for the structures. “Also recorded” adds a separate entry of the source.

With `c1cnc2c(c1)ccc1cccnc12` [1,10 phenanthroline, 1,10-phenanthroline], the “gelatinolytic activity (inactive and active forms of MMP-9 and MMP-2) in gelatin zymography” value in assay [1] was “completely blocked the gelatinolytic activity; also recorded: completely blocks the inactive and active forms”.
With `CNC(=O)[C@H](Cc1c[nH]c2ccccc12)NC(=O)[C@@H](CC(=O)NO)CC(C)C` [GM6001], the “axial distribution of abnormal barrier permeability to HRP (segments rostral and caudal to the lesion)” value in assay [2] is reported as “not observed”. The “blood-spinal cord barrier permeability to HRP at the lesion epicenter” value in assay [2] (100 mg/kg) is reported as “marked increase in permeability to HRP in the wild type mice as compared to”; in assay [2] (listed as GM 6001, 100 mg/kg), “only light patches of HRP reaction product in the epicenter”. For the same compound, the “abnormal barrier permeability to luciferase in the epicenter” value in assay [3] is recorded as “significant reduction in barrier permeability”; in assay [3] (listed as GM 6001), “significantly attenuated”. The “numbers of neutrophils within the lesion epicenter” value in assay [4] was “significant reduction in the numbers of neutrophils”. In addition, the “locomotor recovery (BBB Locomotor Rating Scale, 21 point scale)” value in assay [5] is “greater locomotor”; in assay [5] (listed as GM 6001) it was “significant locomotor recovery as early as 3 days post injury and weekly thereafter”. Further, the “area of residual white matter at the lesion epicenter” value in assay [6] is recorded as “significantly greater preservation of white matter”; in assay [6] (listed as GM 6001), “significant preservation of white matter”.

Values taken from US20030139332A1, “Use of matrix metalloproteinase inhibitors to mitigate nerve damage” (The Regents of the University of California, priority 2001, published 2003).
